Laboratory results as given in patent US20140249135A1, “PIM KINASE INHIBITORS AND METHODS OF THEIR USE” (NOVARTIS AG, priority 2007, published 2014).
Each block holds one molecule with its values, some of them ahead of it.

How the values were obtained:
[1] = target: Pim3 kinase (Homo sapiens, UniProt Q86V86); assay: Pim3 ATP depletion assay; type: biochemical; details: read-out: IC50 (μM) PIM3
[2] = tested on: HEL 92.1.7 cells; assay: Cell proliferation assay (CellTiter-Glo), HEL 92.1.7; type: cell-based; details: Homo sapiens, read-out: EC50 (μM) HEL 92.1.7
How it was run: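 Cells in RPMI1640 with 10% FBS were seeded at 1000 cells/well and exposed to compound dilutions from DMSO stocks for 3 days at 37 °C. Viability was read by CellTiter-Glo luminescence. EC50 was derived from percent inhibition relative to DMSO-only and control-compound wells.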

[3] = target: T1, human full length PKCE enzyme (Homo sapiens, UniProt Q02156); assay: In vitro PKCE assay; type: biochemical; details: 10 nM enzyme, 40 uM peptide substrate, 20 uM ATP, KinaseGlo Plus readout; read-out: PKCε IC50
T1 construct: human full length PKCE enzyme purchased from InVitrogen; purchased InVitrogen
T1 sequence (Q02156 1-737): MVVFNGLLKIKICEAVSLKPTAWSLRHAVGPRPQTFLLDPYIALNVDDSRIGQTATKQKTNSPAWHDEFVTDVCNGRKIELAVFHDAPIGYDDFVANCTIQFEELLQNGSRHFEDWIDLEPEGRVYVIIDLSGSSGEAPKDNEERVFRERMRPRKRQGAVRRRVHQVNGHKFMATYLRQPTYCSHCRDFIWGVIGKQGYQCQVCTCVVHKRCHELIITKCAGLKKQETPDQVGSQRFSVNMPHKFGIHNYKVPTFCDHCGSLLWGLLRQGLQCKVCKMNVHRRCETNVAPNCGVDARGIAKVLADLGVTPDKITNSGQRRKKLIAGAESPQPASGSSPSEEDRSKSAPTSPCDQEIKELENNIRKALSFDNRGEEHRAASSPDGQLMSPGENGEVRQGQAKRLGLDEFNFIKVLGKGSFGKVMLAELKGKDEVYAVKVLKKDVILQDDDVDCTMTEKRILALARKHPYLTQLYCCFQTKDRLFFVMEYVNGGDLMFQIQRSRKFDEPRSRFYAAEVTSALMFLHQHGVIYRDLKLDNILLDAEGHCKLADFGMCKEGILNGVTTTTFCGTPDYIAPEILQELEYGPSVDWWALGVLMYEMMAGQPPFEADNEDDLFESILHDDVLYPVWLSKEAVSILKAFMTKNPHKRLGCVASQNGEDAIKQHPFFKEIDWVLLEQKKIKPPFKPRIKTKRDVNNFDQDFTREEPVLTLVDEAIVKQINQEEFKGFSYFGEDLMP

[4] = tested on: PC3 cells; assay: Cell proliferation assay (CellTiter-Glo), PC3; type: cell-based; details: Homo sapiens, PC-3
Method: HEL 92.1.7 cells (ATTC No. TIB-180, an erythroleukemia line derived from malignant peripheral blood), MV4-11 cells (ATCC No. CRL-9591, a human acute monocytic leukemia line) and PC3 cells (ATCC No. CRL-1435, a human prostatic adenocarcinoma line) were cultured in RPMI1640 supplemented with 10% FBS, sodium pyruvate and antibiotics. Cells were plated in the same medium at a density of 1000 cells per well into 96 well tissue culture plates, with outside wells vacant, on the day of assay.
(§1) Test compounds supplied in DMSO were diluted into DMSO at 500 times the desired final concentrations before dilution into culture media to 2 times final concentrations. Equal volumes of 2× compounds were added to the cells in 96 well plates and incubated at 37° C. for 3 days.
(§2) After 3 days plates were equilibrated to room temperature and equal volume of CellTiter-Glow Reagent (Promega) was added to the culture wells. The plates were agitated briefly and luminescent signal was measured with luminometer. The percent inhibition of the signal seen in cells treated with DMSO alone vs. cells treated with control compound was calculated and used to determine EC50 values (i.e., the concentration of a test compound that is required to obtain 50% of the maximum effect in the cells) for tested compounds, as shown in Example 763.

[5] = target: Pim2 kinase (Homo sapiens, UniProt Q9P1W9); assay: Pim2 ATP depletion assay; type: biochemical; details: read-out: IC50 (μM) PIM2;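 further: Luciferase-based luminescent readout of ATP remaining after PIM2 phosphorylates a BAD peptide, final 5 nM enzyme, 4 µM ATP, 10 µM peptide, 2.5% DMSO, run to roughly half ATP consumption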
[6] = target: KDR kinase (Homo sapiens, UniProt P35968); assay: KDR AlphaScreen assay; details: KDR IC50 (μM)
[7] = target: Pim1 kinase (Homo sapiens, UniProt P11309); assay: Pim1 ATP depletion assay; type: biochemical; details: Pim1 ATP depletion assay; read-out: IC50 (μM) PIM1;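 further: Luciferase-luciferin luminescence readout of residual ATP after PIM1 transfers phosphate to a peptide substrate, 40 µM ATP added, reaction run to roughly half ATP consumption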
[8] = tested on: MM1.s (human myeloma cell line); assay: Cell proliferation assay (CellTiter-Glo), MM1.s; type: cell-based; details: MM1.s cells, read-out: EC50 (μM) MM1.s
Method: (§3) KMS 11 (human myeloma cell line), were cultured in IMDM supplemented with 10% FBS, sodium pyruvate and antibiotics. Cells were plated in the same medium at a density of 2000 cells per well into 96 well tissue culture plates, with outside wells vacant, on the day of assay. MM1.s (human myeloma cell line), were cultured in RPMI1640 supplemented with 10% FBS, sodium pyruvate and antibiotics. Cells were plated in the same medium at a density of 5000 cells per well into 96 well tissue culture plates, with outside wells vacant, on the day of assay.
as §1, §2

[9] = tested on: KMS 11 (human myeloma cell line); assay: Cell proliferation assay (CellTiter-Glo), KMS 11; type: cell-based; details: KMS11 cells, read-out: EC50 (μM) KMS11
Method: as §3, §1, §2

Pim1 kinase, sequence (P11309 whole entry): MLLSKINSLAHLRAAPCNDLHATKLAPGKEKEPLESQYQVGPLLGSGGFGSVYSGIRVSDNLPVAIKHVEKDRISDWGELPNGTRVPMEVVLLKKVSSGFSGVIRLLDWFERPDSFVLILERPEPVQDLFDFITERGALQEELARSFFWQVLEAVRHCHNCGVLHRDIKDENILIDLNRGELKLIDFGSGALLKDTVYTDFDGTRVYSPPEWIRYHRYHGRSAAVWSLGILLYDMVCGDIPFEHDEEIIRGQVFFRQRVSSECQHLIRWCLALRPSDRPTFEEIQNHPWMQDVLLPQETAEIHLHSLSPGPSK
Pim2 kinase, sequence (Q9P1W9 whole entry): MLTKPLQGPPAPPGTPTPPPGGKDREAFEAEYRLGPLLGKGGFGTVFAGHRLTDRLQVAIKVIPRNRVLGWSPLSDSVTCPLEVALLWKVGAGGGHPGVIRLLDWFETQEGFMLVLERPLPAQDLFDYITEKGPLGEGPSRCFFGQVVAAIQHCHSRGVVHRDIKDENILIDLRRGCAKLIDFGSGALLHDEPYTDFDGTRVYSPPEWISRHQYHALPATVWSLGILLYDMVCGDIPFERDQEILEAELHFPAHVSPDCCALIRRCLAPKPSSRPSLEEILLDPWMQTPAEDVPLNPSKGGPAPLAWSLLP
KDR kinase, sequence (P35968 20-1356): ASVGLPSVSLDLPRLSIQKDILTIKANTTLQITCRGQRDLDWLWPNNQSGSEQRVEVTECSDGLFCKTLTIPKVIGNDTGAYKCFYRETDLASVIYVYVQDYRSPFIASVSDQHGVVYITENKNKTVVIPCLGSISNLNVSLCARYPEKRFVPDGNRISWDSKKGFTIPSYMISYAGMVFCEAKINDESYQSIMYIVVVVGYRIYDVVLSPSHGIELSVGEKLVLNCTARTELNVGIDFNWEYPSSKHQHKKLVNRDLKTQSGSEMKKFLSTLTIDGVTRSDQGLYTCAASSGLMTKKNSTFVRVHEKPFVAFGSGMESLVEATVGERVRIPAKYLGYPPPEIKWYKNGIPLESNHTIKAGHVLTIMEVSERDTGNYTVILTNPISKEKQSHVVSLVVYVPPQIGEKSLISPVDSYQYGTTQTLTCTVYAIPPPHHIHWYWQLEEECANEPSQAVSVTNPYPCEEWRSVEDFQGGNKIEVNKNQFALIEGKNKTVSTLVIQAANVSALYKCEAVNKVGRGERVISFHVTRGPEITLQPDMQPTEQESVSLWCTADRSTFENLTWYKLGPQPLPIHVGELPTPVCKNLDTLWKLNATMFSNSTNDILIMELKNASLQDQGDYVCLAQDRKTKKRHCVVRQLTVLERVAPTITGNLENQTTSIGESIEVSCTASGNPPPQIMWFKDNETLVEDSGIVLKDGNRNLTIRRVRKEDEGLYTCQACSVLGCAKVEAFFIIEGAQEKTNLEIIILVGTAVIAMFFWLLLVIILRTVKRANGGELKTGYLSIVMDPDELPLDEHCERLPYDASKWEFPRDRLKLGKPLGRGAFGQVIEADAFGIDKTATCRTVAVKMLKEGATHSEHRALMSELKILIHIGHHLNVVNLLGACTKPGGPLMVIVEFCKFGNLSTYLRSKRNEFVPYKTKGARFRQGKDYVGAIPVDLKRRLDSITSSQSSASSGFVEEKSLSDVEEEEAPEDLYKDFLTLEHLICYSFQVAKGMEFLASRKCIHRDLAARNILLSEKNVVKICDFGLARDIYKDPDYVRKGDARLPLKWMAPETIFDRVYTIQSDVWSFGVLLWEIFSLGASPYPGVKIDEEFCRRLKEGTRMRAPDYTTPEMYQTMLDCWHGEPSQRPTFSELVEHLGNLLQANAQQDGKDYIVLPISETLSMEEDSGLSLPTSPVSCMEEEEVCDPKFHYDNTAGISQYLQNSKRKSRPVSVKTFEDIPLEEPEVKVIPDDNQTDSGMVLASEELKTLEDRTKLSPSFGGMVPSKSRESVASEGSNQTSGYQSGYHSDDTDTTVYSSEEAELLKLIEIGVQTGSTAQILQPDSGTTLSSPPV

Structure (SMILES): Nc1nccnc1C(=O)Nc1ccncc1N1CCCC(N)C1 (centres unmarked) [Example 173, 3-amino-N-[3-(3-aminopiperidin-1-yl)pyridin-4-yl]pyrazine-2-carboxamide]
- IC50 [1]: < 1 µM
- EC50 [2]: 1 to 5 µM
- IC50 [3]: < 1000 nM
- EC50 [4]: 5 to 10 µM
- IC50 [5]: < 1 µM
- IC50 [6]: 10 to 25 µM
- IC50 [7]: < 1 µM

Structure (SMILES): Nc1nccnc1C(=O)Nc1cnccc1N1CCC[C@H](N)C1 [Example 176]
- IC50 [1]: < 1 µM
- EC50 [2]: 1 to 5 µM
- IC50 [3]: < 1000 nM
- EC50 [4]: 1 to 5 µM
- IC50 [5]: < 1 µM
- IC50 [6]: 1 to 10 µM

Structure (SMILES): CC(C)NC(=O)c1ccc(F)c(-c2ccc(N)c(C(=O)Nc3cnccc3N3C[C@@H](N)C[C@@H](F)C3)n2)c1 [Example 292, 3-Amino-6-(2-fluoro-5-isopropylcarbamoyl-phenyl)-pyridine-2-carboxylic acid (3-amino-5-fluoro-3,4,5,6-tetra-hydro-2H-[1,4′]bipyridinyl-3′-yl)-amide]
- IC50 [1]: < 1 µM
- EC50 [8]: < 1 µM
- EC50 [9]: < 1 µM
- IC50 [5]: < 1 µM
- IC50 [7]: < 1 µM

Structure (SMILES): CO[C@@H]1C[C@H](N)CN(c2ccncc2NC(=O)c2nc(-c3cc(C(=O)NC(C)C)ccc3F)ccc2N)C1 [Example 298, 3-Amino-6-(2-fluoro-5-isopropylcarbamoyl-phenyl)-pyridine-2-carboxylic acid (3-amino-5-methoxy-3,4,5,6-tetra-hydro-2H-[1,4′]bipyridinyl-3′-yl)-amide]
- IC50 [1]: < 1 µM
- EC50 [8]: < 1 µM
- EC50 [9]: < 1 µM
- IC50 [5]: < 1 µM
- IC50 [7]: < 1 µM

Structure (SMILES): N#Cc1ccccc1-c1cnc(N)c(C(=O)Nc2cnccc2N2CCCC(N)C2)n1 (centres unmarked) [Example 345, 3-amino-6-(2-cyano-phenyl)-pyrazine-2-carboxylic acid (3-amino-3,4,5,6-tetrahydro-2H-[1,4′]bipyridinyl-3′-yl)-amide]
- IC50 [1]: < 1 µM
- EC50 [2]: < 1 µM
- IC50 [3]: < 1000 nM
- EC50 [4]: < 1 µM
- IC50 [5]: < 1 µM
- IC50 [6]: < 1 µM
- IC50 [7]: < 1 µM

Structure (SMILES): Nc1ncc(-c2ccccc2C(F)(F)F)nc1C(=O)Nc1cnccc1N1CCCC(N)C1 (centres unmarked) [Example 348, 3-amino-6-(2-trifluoromethyl-phenyl)-pyrazine-2-carboxylic acid (3-amino-3,4,5,6-tetra-hydro-2H-[1,4′]bipyridinyl-3′-yl)-amide]
- IC50 [1]: < 1 µM
- EC50 [2]: < 1 µM
- IC50 [3]: < 1000 nM
- EC50 [4]: 1 to 5 µM
- IC50 [7]: < 1 µM

Structure (SMILES): Nc1ncc(-c2ccccc2)nc1C(=O)Nc1ccccc1N1CCNCC1 [Example 382, 3-amino-6-phenyl-pyrazine-2-carboxylic acid (2-piperazin-1-yl-phenyl)-amide]
- IC50 [1]: < 1 µM
- IC50 [3]: < 1000 nM
- EC50 [4]: 1 to 5 µM
- IC50 [5]: 1 to 10 µM
- IC50 [6]: 1 to 10 µM
- IC50 [7]: < 1 µM

Structure (SMILES): Nc1ncc(-c2cccc3ccccc23)nc1C(=O)Nc1ccccc1N1CCNCC1 [Example 389, 3-amino-6-naphthalen-1-yl-pyrazine-2-carboxylic acid (2-piperazin-1-yl-phenyl)-amide]
- IC50 [1]: 1 to 10 µM
- IC50 [3]: < 1000 nM
- EC50 [4]: 1 to 5 µM
- IC50 [5]: 1 to 10 µM
- IC50 [6]: 1 to 10 µM
- IC50 [7]: < 1 µM

Now from value to molecule, other results behind:

- IC50 [1]: < 1 µM
- EC50 [8]: 5 to 10 µM
- EC50 [9]: 1 to 5 µM
- IC50 [5]: < 1 µM
- IC50 [7]: < 1 µM
Structure (SMILES): Nc1ccc(-c2c(F)cccc2F)nc1C(=O)Nc1cnccc1N1CC[C@H](F)[C@@H](N)C1 [Example 276, 3-Amino-6-(2,6-difluoro-phenyl)-pyridine-2-carboxylic acid (3-amino-4-fluoro-3,4,5,6-tetrahydro-2H-[1,4′]bipyridinyl-3′-yl)-amide]

- IC50 [1]: < 1 µM
- EC50 [8]: 1 to 5 µM
- EC50 [9]: 1 to 5 µM
- IC50 [5]: < 1 µM
- IC50 [7]: < 1 µM
Structure (SMILES): Nc1ccc(-c2c(F)cccc2F)nc1C(=O)Nc1cnccc1N1CCCC2(CCNC2)C1 (centres unmarked) [Example 290, 3-Amino-6-(2,6-difluoro-phenyl)-pyridine-2-carboxylic acid [4-(2,7-diaza-spiro[4.5]dec-7-yl)-pyridin-3-yl]-amide]

- IC50 [1]: < 1 µM
- IC50 [3]: 1000 to 10000 nM
- EC50 [4]: 5 to 10 µM
- IC50 [5]: < 1 µM
- IC50 [6]: > 25 µM
- IC50 [7]: < 1 µM
Structure (SMILES): CCOc1ccc(Cl)c(-c2ccc(N)c(C(=O)Nc3cnccc3N3CCC[C@H](N)C3)n2)c1 [Example 322, 3-amino-6-(2-chloro-5-ethoxy-phenyl)-pyridine-2-carboxylic acid ((S)-3-amino-3,4,5,6-tetrahydro-2H-[1,4′]bi-pyridinyl-3′-yl)-amide]
- EC50 [2]: < 1 µM

- IC50 [1]: < 1 µM
- EC50 [4]: 1 to 5 µM
- IC50 [5]: < 1 µM
- IC50 [7]: < 1 µM
Structure (SMILES): Nc1ccc(-c2cc(C(=O)Nc3ccccc3)ccc2F)nc1C(=O)Nc1cnccc1N1CCC[C@H](N)C1 [Example 323, 3-amino-6-(2-fluoro-5-phenylcarbamoyl-phenyl)-pyridine-2-carboxylic acid ((S)-3-amino-3,4,5,6-tetra-hydro-2H-[1,4′]bipyridinyl-3′-yl)-amide]
- EC50 [2]: < 1 µM

- IC50 [1]: < 1 µM
- EC50 [4]: > 10 µM
- IC50 [5]: < 1 µM
- IC50 [7]: < 1 µM
Structure (SMILES): COc1ccncc1-c1ccc(N)c(C(=O)Nc2cnccc2N2CCC[C@H](N)C2)n1 [Example 421, 5-amino-4′-methoxy-[2,3′]bi-pyridinyl-6-carboxylic acid ((S)-3-amino-3,4,5,6-tetrahydro-2H-[1,4′]bipyridinyl-3′-yl)-amide]
- EC50 [2]: 1 to 5 µM

- IC50 [1]: < 1 µM
- IC50 [3]: 10000 to 25000 nM
- EC50 [4]: > 10 µM
- IC50 [5]: < 1 µM
- IC50 [6]: > 25 µM
- IC50 [7]: < 1 µM
Structure (SMILES): Nc1ccc(-c2ccncc2Cl)nc1C(=O)Nc1cnccc1N1CCC[C@H](N)C1 [Example 422, 5-amino-3′-chloro-[2,4′]bi-pyridinyl-6-carboxylic acid ((S)-3-amino-3,4,5,6-tetrahydro-2H-[1,4′]bipyridinyl-3′-yl)-amide]
- EC50 [2]: 1 to 5 µM

- IC50 [1]: < 1 µM
- IC50 [3]: 1000 to 10000 nM
- EC50 [4]: 5 to 10 µM
- IC50 [5]: < 1 µM
- IC50 [6]: > 25 µM
- IC50 [7]: < 1 µM
Structure (SMILES): Nc1ccc(-c2cccc(F)c2F)nc1C(=O)Nc1cnccc1N1CCC[C@H](N)C1 [Example 424, 3-amino-6-(2,3-difluoro-phenyl)-pyridine-2-carboxylic acid ((S)-3-amino-3,4,5,6-tetrahydro-2H-[1,4′]bipyridinyl-3′-yl)-amide]
- EC50 [2]: 1 to 5 µM

- IC50 [1]: < 1 µM
- EC50 [8]: 1 to 5 µM
- EC50 [9]: 1 to 5 µM
- IC50 [7]: < 1 µM
Structure (SMILES): N[C@H]1CCCN(c2ccncc2NC(=O)c2ccc(F)c(-c3c(F)cccc3F)n2)C1 [Example 445]
